Patent US7138361B2, “Herbicidal heterocycles” (E. I. du Pont de Nemours and Company, priority 2000, dated 2006)

Columns and labels:
Type in all cases: in vivo
[1] = test system: Surinam grass (Brachiaria decumbens); assay: Test B postemergence
Procedure, shortened: (§1)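 Greenhouse test: chemicals are formulated in a surfactant-containing non-phytotoxic solvent and applied either preemergence to planted seeds or postemergence to plants 2 to 18 cm tall. Response is rated visually versus controls after 13 to 15 days, 0 meaning no effect and 100 complete control.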

[2] = test system: barnyardgrass (Echinochloa crus-galli); assay: Test B postemergence
Procedure, shortened: as §1

[3] = test system: corn (Zea mays); assay: Test B postemergence
Procedure, shortened: as §1

[4] = test system: lambsquarters (Chenopodium album); assay: Test B postemergence
Procedure, shortened: as §1

[5] = test system: morning glory (Ipomoea hederacea); assay: Test B postemergence
Procedure, shortened: as §1

[6] = test system: velvetleaf (Abutilon theophrasti); assay: Test B postemergence
Procedure, shortened: as §1

[7] = test system: Nightshade; assay: Test C preemergence
[8] = test system: Surinam grass (Brachiaria decumbens); assay: Test C preemergence
Procedure, shortened: (§2)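 Response scores (0 no effect to 100 complete control) came from visual comparison with untreated controls 12 to 14 days after treatment. Preemergence application was made to seeded soil; postemergence, to plants at the 1- to 4-leaf stage.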

[9] = test system: cocklebur (Xanthium strumarium); assay: Test C preemergence; conditions: for Plant response rating, Cocklebur: scale 0 to 100, 0 no effect, 100 complete control
Procedure, shortened: as §2

[10] = test system: common ragweed (Ambrosia elatior); assay: Test C preemergence
Procedure, shortened: as §2

[11] = test system: corn (Zea mays); assay: Test C preemergence
Procedure, shortened: as §2

[12] = test system: crabgrass (Digitaria sanguinalis); assay: Test C preemergence
Procedure, shortened: as §2

[13] = test system: goosegrass (Eleusine indica); assay: Test C preemergence
Procedure, shortened: as §2

[14] = test system: johnsongrass (Sorghum halepense); assay: Test C preemergence
Procedure, shortened: as §2

[15] = test system: kochia (Kochia scoparia); assay: Test C preemergence
Procedure, shortened: as §2

[16] = test system: lambsquarters (Chenopodium album); assay: Test C preemergence
Procedure, shortened: as §2

[17] = test system: morningglory (Ipomoea hederacea); assay: Test C preemergence
Procedure, shortened: as §2

[18] = test system: soybean (Glycine max); assay: Test C preemergence
Procedure, shortened: as §2

[19] = test system: velvetleaf (Abutilon theophrasti); assay: Test C preemergence
Procedure, shortened: as §2

[20] = test system: woolly cupgrass (Eriochloa villosa); assay: Test C preemergence
Procedure, shortened: as §2

[21] = Rate 125 g/ha, scale 0 to 100, 0 no effect, 100 complete control
[22] = Rate 500 g/ha, scale 0 (no effect) to 100 (complete control), 13 to 15 days
[23] = preemergence, Rate 62 g/ha, scale 0 to 100
[24] = preemergence, Rate 500 g/ha, visual evaluation after 12 to 14 days
[25] = preemergence, Rate 250 g/ha, scale 0 to 100, 0 no effect, 100 complete control

CCC(CC)c1ccn(C2CCN(c3ccc(Br)c(OC)c3)C2=O)n1 (stereo not drawn) [Compound 143]
Plant response rating, Surinam grass [1, 21]: 0
Plant response rating, Surinam grass [1, 22]: 0
Plant response rating, Barnyardgrass [2, 21]: 0
Plant response rating, Barnyardgrass [2, 22]: 70
Plant response rating, Corn [3, 21]: 0
Plant response rating, Corn [3, 22]: 0
Plant response rating, Lambsquarters [4, 21]: 80
Plant response rating, Lambsquarters [4, 22]: 100
Plant response rating, Morningglory [5, 21]: 30
Plant response rating, Morningglory [5, 22]: 100
Plant response rating, Velvetleaf [6, 21]: 50
Plant response rating, Velvetleaf [6, 22]: 70
Plant response rating, Nightshade ([7]; Rate 62 g/ha, scale 0 to 100): 100
Plant response rating, Nightshade [7, 21]: 100
Plant response rating, Nightshade ([7]; Rate 250 g/ha, scale 0 to 100, 0 no effect, 100 complete control): 100
Plant response rating, Surinam grass [8, 21]: 0
Plant response rating, Surinam grass [8, 23]: 0
Plant response rating (0 to 100), Surinam grass [8, 24]: 70
Plant response rating, Surinam grass [8, 25]: 70
Plant response rating, Cocklebur ([9]; Rate 125 g/ha): 50
Plant response rating (0 to 100), Cocklebur [9, 24]: 55
Plant response rating, Cocklebur ([9]; preemergence, Rate 250 g/ha): 50
Plant response rating, Ragweed, Common [10, 21]: 100
Plant response rating, Ragweed, Common [10, 23]: 90
Plant response rating (0 to 100), Ragweed, Common [10, 24]: 100
Plant response rating, Ragweed, Common [10, 25]: 100
Plant response rating, Corn [11, 21]: 30
Plant response rating, Corn [11, 23]: 30
Plant response rating (0 to 100), Corn [11, 24]: 30
Plant response rating, Corn [11, 25]: 30
Plant response rating, Crabgrass [12, 21]: 100
Plant response rating, Crabgrass [12, 23]: 100
Plant response rating (0 to 100), Crabgrass [12, 24]: 100
Plant response rating, Crabgrass [12, 25]: 100
Plant response rating, Goosegrass [13, 21]: 100
Plant response rating, Goosegrass [13, 23]: 100
Plant response rating (0 to 100), Goosegrass [13, 24]: 100
Plant response rating, Goosegrass [13, 25]: 100
Plant response rating, Johnsongrass [14, 21]: 60
Plant response rating, Johnsongrass [14, 23]: 0
Plant response rating (0 to 100), Johnsongrass [14, 24]: 90
Plant response rating, Johnsongrass [14, 25]: 90
Plant response rating, Kochia [15, 21]: 100
Plant response rating, Kochia [15, 23]: 100
Plant response rating (0 to 100), Kochia [15, 24]: 100
Plant response rating, Kochia [15, 25]: 100
Plant response rating, Lambsquarters [16, 21]: 100
Plant response rating, Lambsquarters [16, 23]: 100
Plant response rating (0 to 100), Lambsquarters [16, 24]: 100
Plant response rating, Lambsquarters [16, 25]: 100
Plant response rating, Morningglory [17, 21]: 100
Plant response rating, Morningglory [17, 23]: 30
Plant response rating (0 to 100), Morningglory [17, 24]: 100
Plant response rating, Morningglory [17, 25]: 100
Plant response rating, Soybean [18, 21]: 80
Plant response rating, Soybean [18, 23]: 70
Plant response rating (0 to 100), Soybean [18, 24]: 100
Plant response rating, Soybean [18, 25]: 80
Plant response rating, Velvetleaf [19, 21]: 70
Plant response rating, Velvetleaf [19, 23]: 70
Plant response rating (0 to 100), Velvetleaf [19, 24]: 100
Plant response rating, Velvetleaf [19, 25]: 90
Plant response rating, Cupgrass, Woolly [20, 21]: 100
Plant response rating, Cupgrass, Woolly [20, 23]: 90
Plant response rating (0 to 100), Cupgrass, Woolly [20, 24]: 100
Plant response rating, Cupgrass, Woolly [20, 25]: 100
